In ChEMBL document CHEMBL5233265, “Recent advances in the design and development of formyl peptide receptor 2 (FPR2/ALX) agonists as pro-resolving agents with diverse therapeutic potential” (Eur J Med Chem, 2021):
Each block holds one compound with its values, some of them ahead of it.

Tests used:
Format in all cases: cell-based
[1] = target: T1, N-formyl peptide receptor 2 (Homo sapiens, UniProt P25090); test: Agonist activity at human FPR2 expressed in CHO cells assessed as cAMP level incubated for 1.5 hr by HTRF assay
T1 sequence (P25090 whole entry): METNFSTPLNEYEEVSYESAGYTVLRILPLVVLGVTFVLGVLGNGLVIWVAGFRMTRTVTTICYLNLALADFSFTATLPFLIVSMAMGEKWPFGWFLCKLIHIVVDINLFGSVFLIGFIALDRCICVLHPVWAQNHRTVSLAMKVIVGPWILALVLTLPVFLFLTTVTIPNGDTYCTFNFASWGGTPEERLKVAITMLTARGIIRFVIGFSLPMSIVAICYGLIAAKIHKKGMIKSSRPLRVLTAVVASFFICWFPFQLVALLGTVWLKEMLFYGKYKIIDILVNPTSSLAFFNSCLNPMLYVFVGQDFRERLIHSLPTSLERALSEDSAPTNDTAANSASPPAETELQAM

fMet-Leu-Phe receptor [2] = target: T2, fMet-Leu-Phe receptor (Homo sapiens, UniProt P21462); test: Agonist activity at human FPR1 expressed in CHO cells assessed as cAMP level incubated for 1.5 hr by HTRF assay
T2 sequence (P21462 whole entry): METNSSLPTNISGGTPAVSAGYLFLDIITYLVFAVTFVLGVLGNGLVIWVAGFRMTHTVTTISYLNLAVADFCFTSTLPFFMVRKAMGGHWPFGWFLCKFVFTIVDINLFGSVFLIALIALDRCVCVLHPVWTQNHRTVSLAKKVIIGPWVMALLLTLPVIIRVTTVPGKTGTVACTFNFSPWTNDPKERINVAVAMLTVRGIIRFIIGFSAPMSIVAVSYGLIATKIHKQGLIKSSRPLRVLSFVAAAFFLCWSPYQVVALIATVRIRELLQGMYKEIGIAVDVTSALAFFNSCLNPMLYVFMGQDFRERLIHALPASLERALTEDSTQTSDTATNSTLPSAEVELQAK

[3] = target: T3, N-formyl peptide receptor 2 (Homo sapiens) (UniProt P25090); test: Agonist activity at FPR2 (unknown origin) expressed in CHO/Galpha16 cells assessed as maximal calcium flux at 0.61 to 10000 nM by FLIPR assay relative to control; settings: dose 0.61-10000 nM
T3 sequence (whole entry): T1 sequence (P25090 whole entry)

Homo sapiens = organism: Homo sapiens; test: Selectivity index, ratio of EC50 for agonist activity at FPR2 (unknown origin) expressed in CHO/Galpha16 cells to EC50 for FPR1 (unknown origin) expressed in CHO/Galpha16 cells
[4] = target: T4, fMet-Leu-Phe receptor (Homo sapiens) (UniProt P21462); test: Agonist activity at FPR1 (unknown origin) expressed in CHO/Galpha16 cells assessed as maximal calcium flux at 0.61 to 10000 nM by FLIPR assay relative to control; settings: dose 0.61-10000 nM
T4 sequence (whole entry): T2 sequence (P21462 whole entry)

[5] = target: T1, N-formyl peptide receptor 2; test: Agonist activity at FPR2 (unknown origin) expressed in CHO/Galpha16 cells assessed as increase in calcium flux by FLIPR assay
fMet-Leu-Phe receptor [6] = target: T2, fMet-Leu-Phe receptor; test: Agonist activity at FPR1 (unknown origin) expressed in CHO/Galpha16 cells assessed as increase in calcium flux by FLIPR assay
fMet-Leu-Phe receptor [7] = target: T2, fMet-Leu-Phe receptor; test: Agonist activity at human FPR1 expressed in CHO cells assessed as increase in calcium flux incubated for 50 mins by FLIPR calcium 5 dye based fluorescence assay
[8] = target: T1, N-formyl peptide receptor 2; test: Agonist activity at human FPR2 expressed in CHO cells assessed as increase in calcium flux incubated for 50 mins by FLIPR calcium 5 dye based fluorescence assay
[9] = target: T1, N-formyl peptide receptor 2; test: Agonist activity at human FPR2 transfected in HL-60 cells assessed as increase in intracellular calcium flux incubated for 30 mins by Fluo-4 AM dye based fluorometer analysis; settings: read-out: EC50
fMet-Leu-Phe receptor [10] = target: T2, fMet-Leu-Phe receptor; test: Agonist activity at human FPR1 transfected in HL-60 cells assessed as increase in intracellular calcium flux incubated for 30 mins by Fluo-4 AM dye based fluorometer analysis; settings: read-out: EC50
[11] = target: T3, N-formyl peptide receptor 2 (Homo sapiens); test: Agonist activity at human FPR2 transfected in HL-60 cells assessed as maximal intracellular calcium flux incubated for 30 mins by Fluo-4 AM dye based fluorometer analysis relative to control; settings: filed as agonist

SMILES: COc1cc(F)c([C@@H]2CNC(=O)[C@H]2Nc2nnc(-c3ccc(Cl)cc3)s2)c(F)c1
EC50 [1]: < 40 nM
EC50 (fMet-Leu-Phe receptor [2]; cho): Not Active

SMILES: Cc1cccc(C2(NC(=O)N[C@@H]3C(=O)NC[C@H]3c3c(F)cc(Br)cc3F)CC2)n1
EC50 [1]: 10 nM
EC50 (fMet-Leu-Phe receptor [2]; cho): Not Active

SMILES: CC1(C)CN(c2ccc(-c3ccccc3P(C)(C)=O)c(F)c2F)C(=O)[C@@H]1NC(=O)Nc1cnc(Cl)cn1
EC50 [1]: 57 nM

SMILES: NC(=O)c1ccccc1-c1ccc(N2CCC[C@@H](NC(=O)Nc3ccc(C(F)(F)F)cc3)C2=O)cc1
EC50 [1]: < 5 nM

SMILES: CP(C)(=O)c1ccccc1-c1ccc(N2CC[C@@H](NC(=O)Nc3ccc(Cl)cc3)C2=O)c(F)c1F
EC50 [1]: 25 nM

SMILES: O=C(Nc1ccccc1F)N[C@@H]1CCCN(c2ccc(-c3ccccc3F)cc2)C1=O
EC50 [1]: 40 nM

SMILES: NC(=O)c1ccccc1-c1ccc(N2CCCC(NC(=O)Nc3ccc(C(F)(F)F)cc3)C2=O)cc1 (racemic)
EC50 [1]: 40 nM

SMILES: CP(C)(=O)c1ccccc1-c1ccc(N2CC3(CC3)[C@@H](NC(=O)Nc3ccc(Cl)cc3F)C2=O)c(F)c1F
EC50 (fMet-Leu-Phe receptor [2]; read-out: EC50): > 5000 nM

SMILES: COc1cc(F)c([C@H]2CCN(CC3CC3)C(=O)[C@@H]2NC(=O)Nc2ccc(Cl)cc2)c(F)c1
EC50 (fMet-Leu-Phe receptor [7]): 1 nM
EC50 [8]: < 1 nM

SMILES: O=C(Nc1ccc(C(F)(F)F)cc1)N[C@@H]1CCCN(c2ccc(N3CCOCC3)cc2)C1=O
EC50 [1]: < 10 nM

SMILES: O=C(Nc1ccc(C(F)(F)F)cc1)N[C@H]1CCCN(c2ccc(-c3ccccc3F)cc2)C1=O
EC50 [1]: 40 nM

SMILES: CN1CCN(c2ccc(N3CCC[C@@H](NC(=O)Nc4ccc(C(F)(F)F)cc4)C3=O)cc2)CC1
EC50 [1]: 10 nM

SMILES: CS(=O)(=O)NCC1(c2ccc(N3CCC[C@@H](NC(=O)Nc4ccc(C(F)(F)F)nc4)C3=O)cc2)CCCC1
EC50 [1]: < 100 nM
EC50 (fMet-Leu-Phe receptor [2]; cho): Not Active

SMILES: COc1cc(F)c([C@@H]2CN(CC3CC3)C(=O)[C@H]2NC(=O)NC2(c3cccc(C)n3)CC2)c(F)c1
EC50 [1]: < 10 nM
EC50 (fMet-Leu-Phe receptor [2]; cho): Not Active

SMILES: COc1ccc([C@@H]2CCN(Cc3ccccn3)C(=O)[C@@H]2NC(=O)Nc2ccc(F)cc2)cc1 (relative stereo)
EC50 (fMet-Leu-Phe receptor [7]): 1 nM
EC50 [8]: 1 nM

SMILES: Cc1cnc(NC(=O)N[C@@H]2CCCN(c3ccc(-c4ccccc4NS(C)(=O)=O)cc3F)C2=O)cn1
EC50 [1]: 22 nM
EC50 (fMet-Leu-Phe receptor [2]; read-out: EC50): 2000 nM

Further lines, with some results ahead:

Emax [3]: 105%
Emax [4]: 98%
SMILES: CCC[C@H](NC(=O)CNC(=O)Nc1ccc(Br)cc1)C(=O)O
Ratio EC50 (Homo sapiens): 62

Emax [3]: 75%
Emax [4]: 91%
SMILES: CC(C)C(C(=O)O)C(C)NC(=O)Nc1ccc(Br)cc1 (stereo in doubt; 20)
Ratio EC50 (Homo sapiens): 101

EC50 [1]: 40 nM
SMILES: O=C(Nc1ccc(C(F)(F)F)cc1)N[C@H]1CCCN(c2ccc(-c3ccccc3C(=O)O)cc2)C1=O

EC50 [5]: 3240 nM
EC50 (fMet-Leu-Phe receptor [6]): 13 nM
SMILES: CC(C)C(C(=O)O)C(C)NC(=O)Nc1ccc(Br)cc1 (stereo in doubt; 19)

EC50 [9]: 180 nM
EC50 (fMet-Leu-Phe receptor [10]): 1400 nM
Emax [11]: 115%
SMILES: COc1ccc(NC(=O)N[C@@H](Cc2ccc(C#N)cc2)C(=O)NCC2(c3cccc(O)c3)CC2)cc1

EC50 [1]: 5 nM
SMILES: O=C(Nc1ccc(C(F)(F)F)cc1)N[C@@H]1CCCN(c2ccc(-c3ccccc3C(=O)O)cc2)C1=O

Emax [3]: 89%
Emax [4]: 94%
SMILES: CC(C)C(C(=O)O)C(C)NC(=O)Nc1ccc(Br)cc1 (stereo in doubt; 18)
Ratio EC50 (Homo sapiens): 17

EC50 (fMet-Leu-Phe receptor [7]): 1 nM
EC50 [8]: 1 nM
SMILES: COc1cc(F)c([C@H]2CCN(CCC(F)F)C[C@@H]2NC(=O)Nc2ccc(Cl)cc2)c(F)c1 (relative stereo; form 1)

EC50 [5]: 25 nM
EC50 (fMet-Leu-Phe receptor [6]): 1.7 nM
SMILES: CC(C)C(C(=O)O)C(C)NC(=O)Nc1ccc(Br)cc1 (stereo in doubt; 21)

Emax [3]: 197%
Emax [4]: 97%
SMILES: O=C(CNC(=O)Nc1ccc(Br)cc1)N[C@@H](Cc1ccccc1)C(=O)O
Ratio EC50 (Homo sapiens): 24
